Data taken from patent US12479847B2 (DANA-FARBER CANCER INSTITUTE, INC., priority 2019, dated 2025).
Where two headings read alike, the source gives them in different places.

Columns and labels:
[1] = target: T1, panel of 468 kinases (Homo sapiens, UniProt P07333); assay: KINOMEscan (ScanMAX) kinase profiling; format: binding; conditions: 1 μM, read-out: % control
T1 construct: purchased KINOMEscan (ScanMAX) service
Method: (§1) The kinase selectivity of inventive compounds 12, 75, and 77 was evaluated by KINOMEscan®. KINOMEscan® (ScanMAX™) analysis was performed against a near comprehensive panel of 468 kinases. The control percentage (% control) for inventive compounds at 1 μM in DMSO was determined by Equation 1: % control=(inventive compound−positive control)/(negative control−positive control)×100%, Equation 1
(§2) wherein the positive control is a compound with a % control value of 0% relative light units (RLU), and the negative control (i.e., DMSO) has % control value of 100% RLU. The enzyme selectivity in the present invention is defined as follows: inventive compounds are considered active for an enzyme when the observed % control is less than 35% (<35%).

[2] = target: T2, panel of 468 kinases (Homo sapiens, UniProt P21860); assay: KINOMEscan (ScanMAX) kinase profiling; format: binding; conditions: ERBB3; 1 μM; read-out: % control
T2 construct: purchased KINOMEscan (ScanMAX) service
Method: as §1, §2

[3] = target: T3, panel of 468 kinases (Homo sapiens, UniProt P25098); assay: KINOMEscan (ScanMAX) kinase profiling; format: binding; conditions: GRK2; 1 μM; read-out: % control
T3 construct: purchased KINOMEscan (ScanMAX) service
T3 sequence (P25098 1-689): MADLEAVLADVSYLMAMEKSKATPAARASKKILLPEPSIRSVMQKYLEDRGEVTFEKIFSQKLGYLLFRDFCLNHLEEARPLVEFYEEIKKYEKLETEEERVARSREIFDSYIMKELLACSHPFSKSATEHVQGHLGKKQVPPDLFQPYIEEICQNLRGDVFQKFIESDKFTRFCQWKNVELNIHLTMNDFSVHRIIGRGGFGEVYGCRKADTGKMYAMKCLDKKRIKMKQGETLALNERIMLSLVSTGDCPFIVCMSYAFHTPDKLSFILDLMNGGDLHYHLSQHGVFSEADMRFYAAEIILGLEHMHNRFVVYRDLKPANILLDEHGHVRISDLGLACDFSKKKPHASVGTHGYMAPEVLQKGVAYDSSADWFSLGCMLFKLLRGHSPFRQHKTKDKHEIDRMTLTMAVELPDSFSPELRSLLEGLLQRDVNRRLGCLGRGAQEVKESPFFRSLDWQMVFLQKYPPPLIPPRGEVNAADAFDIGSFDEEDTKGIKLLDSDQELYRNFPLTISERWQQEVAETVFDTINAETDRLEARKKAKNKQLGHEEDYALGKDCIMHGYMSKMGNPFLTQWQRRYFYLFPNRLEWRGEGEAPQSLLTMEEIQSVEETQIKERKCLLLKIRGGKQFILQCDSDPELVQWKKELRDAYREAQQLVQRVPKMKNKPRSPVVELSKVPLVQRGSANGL
Method: as §1, §2

[4] = target: T4, panel of 468 kinases (Homo sapiens, UniProt P31751); assay: KINOMEscan (ScanMAX) kinase profiling; format: binding; conditions: AKT2; 1 μM; read-out: % control
T4 construct: purchased KINOMEscan (ScanMAX) service
Method: as §1, §2

[5] = target: T5, panel of 468 kinases (Homo sapiens, UniProt P49759); assay: KINOMEscan (ScanMAX) kinase profiling; format: binding; conditions: CLK1; 1 μM; read-out: % control
T5 construct: purchased KINOMEscan (ScanMAX) service
Method: as §1, §2

[6] = target: T6, panel of 468 kinases (Homo sapiens, UniProt Q09013); assay: KINOMEscan (ScanMAX) kinase profiling; format: binding; conditions: DMPK; 1 μM; read-out: % control
T6 construct: purchased KINOMEscan (ScanMAX) service
T6 sequence (Q09013 1-629): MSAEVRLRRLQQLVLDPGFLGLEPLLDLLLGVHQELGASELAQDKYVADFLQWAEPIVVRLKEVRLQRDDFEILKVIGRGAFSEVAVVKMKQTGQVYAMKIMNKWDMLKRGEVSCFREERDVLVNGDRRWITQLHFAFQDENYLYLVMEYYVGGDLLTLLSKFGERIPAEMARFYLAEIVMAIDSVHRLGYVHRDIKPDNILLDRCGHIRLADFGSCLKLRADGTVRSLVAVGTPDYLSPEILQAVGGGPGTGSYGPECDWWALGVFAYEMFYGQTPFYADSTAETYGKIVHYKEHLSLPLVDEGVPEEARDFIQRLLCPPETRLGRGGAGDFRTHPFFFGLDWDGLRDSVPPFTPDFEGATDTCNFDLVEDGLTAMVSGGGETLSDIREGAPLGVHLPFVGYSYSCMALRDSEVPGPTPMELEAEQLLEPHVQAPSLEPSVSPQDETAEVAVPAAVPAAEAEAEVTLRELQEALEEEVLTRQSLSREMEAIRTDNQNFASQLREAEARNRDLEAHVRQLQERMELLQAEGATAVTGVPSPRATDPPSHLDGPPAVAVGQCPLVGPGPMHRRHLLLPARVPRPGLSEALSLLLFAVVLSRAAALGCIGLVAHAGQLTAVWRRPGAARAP
Method: as §1, §2

[7] = target: T7, panel of 468 kinases (Homo sapiens, UniProt Q9BVS4); assay: KINOMEscan (ScanMAX) kinase profiling; format: binding; conditions: RIOK2; 1 μM; read-out: % control
T7 construct: purchased KINOMEscan (ScanMAX) service
Method: as §1, §2

[8] = target: T8, panel of 468 kinases (Homo sapiens, UniProt Q9H3Y6); assay: KINOMEscan (ScanMAX) kinase profiling; format: binding; conditions: SRMS; 1 μM; read-out: % control
T8 construct: purchased KINOMEscan (ScanMAX) service
Method: as §1, §2

[9] = target: T9, panel of 468 kinases (Homo sapiens, UniProt Q9Y2K2); assay: KINOMEscan (ScanMAX) kinase profiling; format: binding; conditions: QSK; 1 μM; read-out: % control
T9 construct: purchased KINOMEscan (ScanMAX) service
Method: as §1, §2

[10] = target: human LRRK2 kinase (Homo sapiens, UniProt Q5S007); conditions: LRRK2, ADP-Glo, ATP 10 μM, 60 minutes at 25° C.

T9 sequence (Q9Y2K2 whole entry): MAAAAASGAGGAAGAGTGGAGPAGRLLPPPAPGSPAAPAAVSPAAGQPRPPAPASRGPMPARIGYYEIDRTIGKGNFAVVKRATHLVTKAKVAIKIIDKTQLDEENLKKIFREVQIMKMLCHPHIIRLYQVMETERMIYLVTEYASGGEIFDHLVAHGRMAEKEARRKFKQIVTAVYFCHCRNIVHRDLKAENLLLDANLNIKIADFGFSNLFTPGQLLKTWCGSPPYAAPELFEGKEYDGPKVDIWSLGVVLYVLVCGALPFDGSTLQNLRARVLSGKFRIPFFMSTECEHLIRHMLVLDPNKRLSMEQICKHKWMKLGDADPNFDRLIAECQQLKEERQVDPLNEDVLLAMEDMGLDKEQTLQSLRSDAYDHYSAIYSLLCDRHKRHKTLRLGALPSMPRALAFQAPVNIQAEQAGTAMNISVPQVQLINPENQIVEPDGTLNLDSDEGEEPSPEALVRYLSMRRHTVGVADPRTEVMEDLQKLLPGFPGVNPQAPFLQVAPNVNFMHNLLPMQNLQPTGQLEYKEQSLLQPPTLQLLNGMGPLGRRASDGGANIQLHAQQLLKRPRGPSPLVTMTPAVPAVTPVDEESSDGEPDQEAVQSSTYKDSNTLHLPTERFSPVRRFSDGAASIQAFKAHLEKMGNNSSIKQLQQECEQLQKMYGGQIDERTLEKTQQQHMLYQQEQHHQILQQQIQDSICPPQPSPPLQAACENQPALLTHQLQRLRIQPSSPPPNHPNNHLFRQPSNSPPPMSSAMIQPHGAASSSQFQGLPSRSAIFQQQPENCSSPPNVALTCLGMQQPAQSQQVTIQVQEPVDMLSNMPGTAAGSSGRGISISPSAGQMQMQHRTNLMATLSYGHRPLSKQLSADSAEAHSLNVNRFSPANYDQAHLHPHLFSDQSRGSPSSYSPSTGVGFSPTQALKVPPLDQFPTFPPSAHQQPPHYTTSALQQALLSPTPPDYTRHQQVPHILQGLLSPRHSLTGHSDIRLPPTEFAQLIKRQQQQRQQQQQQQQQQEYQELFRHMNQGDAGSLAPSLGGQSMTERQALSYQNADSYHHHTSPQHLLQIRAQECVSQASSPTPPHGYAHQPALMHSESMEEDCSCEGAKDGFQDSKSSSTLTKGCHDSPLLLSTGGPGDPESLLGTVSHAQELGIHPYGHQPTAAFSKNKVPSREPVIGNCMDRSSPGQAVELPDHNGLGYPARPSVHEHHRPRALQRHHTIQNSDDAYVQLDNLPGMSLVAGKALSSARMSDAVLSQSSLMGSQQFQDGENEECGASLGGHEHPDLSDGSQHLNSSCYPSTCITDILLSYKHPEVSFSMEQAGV
T4 sequence (P31751 whole entry): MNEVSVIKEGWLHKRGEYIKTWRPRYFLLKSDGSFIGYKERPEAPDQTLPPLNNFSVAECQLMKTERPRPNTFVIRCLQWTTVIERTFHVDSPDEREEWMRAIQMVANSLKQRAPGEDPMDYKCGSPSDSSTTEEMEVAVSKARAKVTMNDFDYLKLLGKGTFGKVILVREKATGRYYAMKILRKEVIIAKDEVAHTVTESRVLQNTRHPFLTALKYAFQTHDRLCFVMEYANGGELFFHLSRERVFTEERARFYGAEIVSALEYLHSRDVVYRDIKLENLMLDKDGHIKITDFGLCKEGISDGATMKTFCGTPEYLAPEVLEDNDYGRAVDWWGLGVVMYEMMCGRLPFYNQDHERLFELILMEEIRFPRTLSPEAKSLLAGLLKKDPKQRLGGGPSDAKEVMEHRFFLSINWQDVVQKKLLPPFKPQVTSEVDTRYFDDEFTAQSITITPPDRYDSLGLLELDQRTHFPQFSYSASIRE
T1 sequence (P07333 20-972): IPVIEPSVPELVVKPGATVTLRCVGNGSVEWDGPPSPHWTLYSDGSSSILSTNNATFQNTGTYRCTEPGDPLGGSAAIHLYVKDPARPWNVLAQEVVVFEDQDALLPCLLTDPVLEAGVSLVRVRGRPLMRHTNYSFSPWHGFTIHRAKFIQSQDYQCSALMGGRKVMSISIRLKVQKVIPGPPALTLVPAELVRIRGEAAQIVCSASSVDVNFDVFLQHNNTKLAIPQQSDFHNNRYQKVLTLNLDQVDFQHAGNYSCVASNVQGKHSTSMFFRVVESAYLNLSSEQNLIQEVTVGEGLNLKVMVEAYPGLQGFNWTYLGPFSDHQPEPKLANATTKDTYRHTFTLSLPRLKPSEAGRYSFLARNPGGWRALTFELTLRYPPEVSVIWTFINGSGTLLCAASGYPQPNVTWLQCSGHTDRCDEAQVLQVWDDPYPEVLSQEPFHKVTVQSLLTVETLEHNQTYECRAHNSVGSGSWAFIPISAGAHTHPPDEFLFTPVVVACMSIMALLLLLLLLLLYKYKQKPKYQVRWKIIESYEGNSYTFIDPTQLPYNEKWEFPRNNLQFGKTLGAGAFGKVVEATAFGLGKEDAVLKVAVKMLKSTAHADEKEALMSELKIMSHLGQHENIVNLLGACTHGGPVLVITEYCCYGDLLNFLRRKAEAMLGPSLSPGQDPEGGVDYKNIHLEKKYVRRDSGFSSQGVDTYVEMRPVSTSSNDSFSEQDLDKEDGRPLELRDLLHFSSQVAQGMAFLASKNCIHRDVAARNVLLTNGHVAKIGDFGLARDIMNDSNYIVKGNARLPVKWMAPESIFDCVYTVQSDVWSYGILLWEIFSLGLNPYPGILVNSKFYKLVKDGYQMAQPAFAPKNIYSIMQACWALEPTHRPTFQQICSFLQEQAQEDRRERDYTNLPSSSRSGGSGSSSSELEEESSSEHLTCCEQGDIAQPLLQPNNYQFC
T2 sequence (P21860 20-1342): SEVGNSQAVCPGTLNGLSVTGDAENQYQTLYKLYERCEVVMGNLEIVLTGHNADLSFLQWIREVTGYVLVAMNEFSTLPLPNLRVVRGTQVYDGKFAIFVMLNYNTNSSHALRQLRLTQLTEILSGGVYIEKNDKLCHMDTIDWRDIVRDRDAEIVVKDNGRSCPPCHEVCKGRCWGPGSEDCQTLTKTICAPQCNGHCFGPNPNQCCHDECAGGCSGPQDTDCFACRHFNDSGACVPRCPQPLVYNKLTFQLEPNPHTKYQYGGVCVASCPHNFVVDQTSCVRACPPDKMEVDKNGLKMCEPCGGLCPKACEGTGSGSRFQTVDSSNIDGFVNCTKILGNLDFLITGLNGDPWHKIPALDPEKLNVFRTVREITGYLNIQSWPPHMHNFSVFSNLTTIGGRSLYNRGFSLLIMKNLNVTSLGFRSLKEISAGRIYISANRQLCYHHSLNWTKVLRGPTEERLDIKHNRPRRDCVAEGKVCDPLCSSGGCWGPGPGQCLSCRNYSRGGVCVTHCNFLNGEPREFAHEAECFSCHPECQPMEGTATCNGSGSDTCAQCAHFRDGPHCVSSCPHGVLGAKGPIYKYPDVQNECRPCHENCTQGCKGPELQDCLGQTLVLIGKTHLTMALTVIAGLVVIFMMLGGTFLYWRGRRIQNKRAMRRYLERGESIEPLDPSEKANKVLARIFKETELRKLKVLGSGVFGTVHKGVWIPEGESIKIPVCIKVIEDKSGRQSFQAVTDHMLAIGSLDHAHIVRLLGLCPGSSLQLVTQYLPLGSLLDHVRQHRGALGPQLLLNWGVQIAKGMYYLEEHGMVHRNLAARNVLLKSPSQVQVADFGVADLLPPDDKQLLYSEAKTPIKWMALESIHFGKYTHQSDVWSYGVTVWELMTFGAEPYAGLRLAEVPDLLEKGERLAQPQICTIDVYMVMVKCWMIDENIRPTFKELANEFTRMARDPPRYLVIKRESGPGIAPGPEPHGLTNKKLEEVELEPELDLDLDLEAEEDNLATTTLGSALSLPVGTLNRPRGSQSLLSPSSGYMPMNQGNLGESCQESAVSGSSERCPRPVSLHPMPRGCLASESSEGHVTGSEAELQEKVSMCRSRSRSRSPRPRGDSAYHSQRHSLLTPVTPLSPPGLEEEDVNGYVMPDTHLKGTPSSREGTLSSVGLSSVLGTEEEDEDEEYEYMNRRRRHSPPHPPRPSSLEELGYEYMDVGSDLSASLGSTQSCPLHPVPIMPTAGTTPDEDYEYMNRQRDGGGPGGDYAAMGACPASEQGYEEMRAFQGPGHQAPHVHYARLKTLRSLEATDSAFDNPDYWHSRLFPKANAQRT
T5 sequence (P49759 whole entry): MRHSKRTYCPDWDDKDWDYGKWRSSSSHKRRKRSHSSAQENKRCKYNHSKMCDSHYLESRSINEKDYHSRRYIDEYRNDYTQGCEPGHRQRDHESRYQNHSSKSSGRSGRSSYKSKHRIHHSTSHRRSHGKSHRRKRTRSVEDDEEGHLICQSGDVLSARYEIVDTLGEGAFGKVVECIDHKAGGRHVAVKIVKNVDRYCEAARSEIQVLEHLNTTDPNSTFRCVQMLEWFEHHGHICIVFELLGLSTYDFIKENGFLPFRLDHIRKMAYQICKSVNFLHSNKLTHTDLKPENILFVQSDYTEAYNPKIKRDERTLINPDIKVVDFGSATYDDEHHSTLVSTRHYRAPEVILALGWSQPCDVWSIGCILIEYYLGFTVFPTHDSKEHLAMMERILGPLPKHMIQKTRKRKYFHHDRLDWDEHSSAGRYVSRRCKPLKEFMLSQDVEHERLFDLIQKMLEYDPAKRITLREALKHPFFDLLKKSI
T8 sequence (Q9H3Y6 whole entry): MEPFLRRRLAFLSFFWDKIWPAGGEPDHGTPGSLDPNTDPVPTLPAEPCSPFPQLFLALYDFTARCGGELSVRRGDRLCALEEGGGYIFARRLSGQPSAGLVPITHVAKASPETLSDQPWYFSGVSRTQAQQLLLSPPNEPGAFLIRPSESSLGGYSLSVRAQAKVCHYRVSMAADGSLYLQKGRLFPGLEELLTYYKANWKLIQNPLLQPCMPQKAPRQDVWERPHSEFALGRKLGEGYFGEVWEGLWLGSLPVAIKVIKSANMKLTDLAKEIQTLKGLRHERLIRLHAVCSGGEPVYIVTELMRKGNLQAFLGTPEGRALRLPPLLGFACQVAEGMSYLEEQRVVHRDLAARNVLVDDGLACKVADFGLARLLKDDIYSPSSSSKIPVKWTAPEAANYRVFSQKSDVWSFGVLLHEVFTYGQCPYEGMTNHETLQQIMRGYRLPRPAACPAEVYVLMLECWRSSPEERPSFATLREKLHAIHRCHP

Structure (SMILES)	remaining binding at 1 µM ([1]; CSF1R-autoinhibited)	remaining binding at 1 µM ([1]; CSF1R)	remaining binding at 1 µM [2]	remaining binding at 1 µM [3]	remaining binding at 1 µM [4]	remaining binding at 1 µM [5]	remaining binding at 1 µM [6]	remaining binding at 1 µM [7]	remaining binding at 1 µM [8]	remaining binding at 1 µM [9]	IC50 [10]
CNc1nc(Nc2ccc(S(=O)(=O)N3CCC(N4CCOCC4)CC3)cc2OC)nc2[nH]cc(Cl)c12 [Compound 12, 5-chloro-N2-(2-methoxy-4-((4-morpholinopiperidin-1-yl)sulfonyl)phenyl)-N4-methyl-7H-pyrrolo[2,3-d]pyrimidine-2,4-diamine]	100%	100%	38%	100%	100%	6.1%	97%	94%	66%	100%	< 10 nM
CNc1nc(Nc2ccc(C(=O)N3CCC(N4CCOCC4)CC3)c3c2OCO3)nc2[nH]cc(Cl)c12 [Compound 75, (7-((5-chloro-4-(methylamino)-7H-pyrrolo[2,3-d]pyrimidin-2-yl)amino)benzo[d][1,3]dioxol-4-yl)(4-morpholinopiperidin-1-yl)methanone]	99%	98%	38%	100%	100%	3.4%	100%	53%	70%	100%	< 10 nM
CNc1nc(Nc2ccc(P3(=O)CCN(C4CCOCC4)CC3)cc2OC)nc2[nH]cc(Cl)c12 [Compound 77, 4-(4-((5-chloro-4-(methylamino)-7H-pyrrolo[2,3-d]pyrimidin-2-yl)amino)-3-methoxyphenyl)-1-(tetrahydro-2H-pyran-4-yl)-1,4-azaphosphinane 4-oxide]	100%	100%	35%	98%	100%	7.1%	100%	78%	64%	100%	< 10 nM
